Experimental data from PubChem BioAssay AID330 (DTP/NCI, 2004).
Several values for one entry are separate records, joined by “and”; a condition that tells them apart may be missing. Equal entries are not always repeated. Inconclusive results and toxic doses are left out.

Tested on: P388 leukemia ip, CD2F1 mice, survival T/C
Assay: NCI In Vivo Anticancer Drug Screen. Data for tumor model P388 Leukemia (intraperitoneal) in CD2F1 (CDF1) mice
Conditions: endpoint: median survival time, higher = longer survival
Summary of the method: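 Mice carrying the transplanted tumor received test compound or vehicle. Survival was recorded in each group, and the value is the treated-group measurement divided by that of the vehicle-treated control group.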

[1] = dose: 50.0 mg/kg/injection, schedule: Q01DX005 (ip), vehicle: saline with Tween-80
[2] = dose: 100.0 mg/kg/injection, schedule: Q01DX005 (ip), vehicle: saline with Tween-80
[3] = dose: 200.0 mg/kg/injection, schedule: Q01DX005 (ip), vehicle: saline with Tween-80
[4] = dose: 60.0 mg/kg/injection, schedule: Q01DX005 (ip), vehicle: saline with Tween-80
[5] = dose: 120.0 mg/kg/injection, schedule: Q01DX005 (ip), vehicle: saline with Tween-80
[6] = dose: 240.0 mg/kg/injection, schedule: Q01DX005 (ip), vehicle: saline with Tween-80
[7] = dose: 50.0 mg/kg/injection, schedule: Q01DX005 (ip), vehicle: Klucel (hydroxypropylcellulose) (HPC)
[8] = dose: 100.0 mg/kg/injection, schedule: Q01DX005 (ip), vehicle: Klucel (hydroxypropylcellulose) (HPC)
[9] = dose: 200.0 mg/kg/injection, schedule: Q01DX005 (ip), vehicle: Klucel (hydroxypropylcellulose) (HPC)
[10] = dose: 50.0 mg/kg/injection, schedule: Q01DX009 (ip), vehicle: Klucel (hydroxypropylcellulose) (HPC)
[11] = dose: 100.0 mg/kg/injection, schedule: Q01DX009 (ip), vehicle: Klucel (hydroxypropylcellulose) (HPC)
[12] = dose: 200.0 mg/kg/injection, schedule: Q01DX009 (ip), vehicle: Klucel (hydroxypropylcellulose) (HPC)

## FC(F)(F)C1(C(F)(F)F)O[Te]2(OC(C(F)(F)F)(C(F)(F)F)c3ccccc32)c2ccccc21
dose: 80.0 mg/kg/injection, schedule: Q04DX002 (ip), vehicle: Klucel (hydroxypropylcellulose) (HPC)
  T/C: 96 % of control
dose: 160.0 mg/kg/injection, schedule: Q04DX002 (ip), vehicle: Klucel (hydroxypropylcellulose) (HPC)
  T/C: 102 % of control
dose: 320.0 mg/kg/injection, schedule: Q04DX002 (ip), vehicle: Klucel (hydroxypropylcellulose) (HPC)
  T/C: 105 % of control

## CC(C)(C)[Si](OC(=O)CCCc1ccc(N(CCCl)CCCl)cc1)(c1ccccc1)c1ccccc1
dose: 25.0 mg/kg/injection, schedule: Q01DX005 (ip), vehicle: saline with Tween-80
  T/C: 123 % of control
[1]
  T/C: 155 % of control and 175 % of control
[2]
  T/C: 255 % of control

## N=C(N)c1ccc(NC(=O)c2ccc(C(=O)Nc3ccc(C(=N)N)cc3)c(N)c2)cc1
[1]
  T/C: 110 % of control
[2]
  T/C: 107 % of control
[3]
  T/C: 87 % of control

## CC(=O)NS(=O)(=O)c1ccc(N=Nc2c(C)nn(C(=O)c3cccnc3)c2-c2ccccc2)cc1
[1]
  T/C: 87 % of control
[2]
  T/C: 89 % of control

## CCCCCCCCCCCCCCCCONc1ccnc(=O)[nH]1
dose: 37.5 mg/kg/injection, schedule: Q01DX001 (ip), vehicle: Klucel (hydroxypropylcellulose) (HPC)
  T/C: 91 % of control
dose: 75.0 mg/kg/injection, schedule: Q01DX001 (ip), vehicle: Klucel (hydroxypropylcellulose) (HPC)
  T/C: 91 % of control

## [Cl][Ge]([Cl])([Cl])[c]1ccccc1
dose: 50.0 mg/kg/injection, schedule: Q01DX009 (ip), vehicle: saline
  T/C: 100 % of control
dose: 100.0 mg/kg/injection, schedule: Q01DX009 (ip), vehicle: saline
  T/C: 100 % of control

## O=C(N/N=C\c1cc(Br)cc(Br)c1O)N/N=C/c1cc(Br)cc(Br)c1O
dose: 6.25 mg/kg/injection, schedule: Q01DX009 (ip), vehicle: saline with Tween-80
  T/C: 100 % of control and 110 % of control
dose: 12.5 mg/kg/injection, schedule: Q01DX009 (ip), vehicle: distilled water + Tween-80
  T/C: 98 % of control
dose: 20.0 mg/kg/injection, schedule: Q01DX005 (ip), vehicle: suspension in saline
  T/C: 106 % of control
dose: 20.0 mg/kg/injection, schedule: Q01DX005 (iv), vehicle: suspension in saline
  T/C: 101 % of control
dose: 25.0 mg/kg/injection, schedule: Q01DX009 (ip), vehicle: distilled water + Tween-80
  T/C: 106 % of control
dose: 40.0 mg/kg/injection, schedule: Q01DX005 (iv), vehicle: suspension in saline
  T/C: 101 % of control
dose: 50.0 mg/kg/injection, schedule: Q01DX009 (ip), vehicle: distilled water + Tween-80
  T/C: 120 % of control
dose: 50.0 mg/kg/injection, schedule: Q01DX009 (oral), vehicle: saline with Tween-80
  T/C: 103 % of control
dose: 80.0 mg/kg/injection, schedule: Q01DX005 (iv), vehicle: suspension in saline
  T/C: 100 % of control
dose: 100.0 mg/kg/injection, schedule: Q01DX009 (oral), vehicle: saline with Tween-80
  T/C: 105 % of control
dose: 160.0 mg/kg/injection, schedule: Q01DX005 (ip), vehicle: suspension in saline
  T/C: 158 % of control
dose: 160.0 mg/kg/injection, schedule: Q01DX005 (iv), vehicle: suspension in saline
  T/C: 100 % of control
dose: 200.0 mg/kg/injection, schedule: Q01DX009 (oral), vehicle: saline with Tween-80
  T/C: 108 % of control
dose: 280.0 mg/kg/injection, schedule: Q01DX005 (ip), vehicle: suspension in saline
  T/C: 160 % of control
dose: 400.0 mg/kg/injection, schedule: Q01DX009 (oral), vehicle: saline with Tween-80
  T/C: 104 % of control
dose: 800.0 mg/kg/injection, schedule: Q01DX009 (oral), vehicle: saline with Tween-80
  T/C: 104 % of control
dose: 1600.0 mg/kg/injection, schedule: Q01DX009 (oral), vehicle: saline with Tween-80
  T/C: 106 % of control

## COc1nc(NC2OC(CO)C(O)C(O)C2O)c(Cl)c(=O)n1C (centres undefined)
[4]
  T/C: 94 % of control
[5]
  T/C: 93 % of control
[6]
  T/C: 97 % of control

## Cc1nn(C)c(=S)[nH]c1=O
[7]
  T/C: 103 % of control
[1]
  T/C: 105 % of control
[8]
  T/C: 95 % of control
[2]
  T/C: 106 % of control
[9]
  T/C: 110 % of control
[3]
  T/C: 103 % of control

## C1CSCCSCCSCCSCCSCCS1
[10]
  T/C: 96 % of control
[11]
  T/C: 102 % of control
[12]
  T/C: 96 % of control

## NC(Cc1ccc(O)c(N=Nc2ccc([N+](=O)[O-])cc2)c1)C(=O)O (centres undefined)
dose: 100.0 mg/kg/injection, schedule: Q01DX001 (ip), vehicle: saline
  T/C: 103 % of control
dose: 200.0 mg/kg/injection, schedule: Q01DX001 (ip), vehicle: saline
  T/C: 100 % of control
dose: 400.0 mg/kg/injection, schedule: Q01DX001 (ip), vehicle: saline
  T/C: 100 % of control

## COc1cc2c(cc1-c1coc3cc(OCC=C(C)C)ccc3c1=O)OCO2
dose: 9.0 mg/kg/injection, schedule: Q01DX005 (ip), vehicle: Klucel (hydroxypropylcellulose) (HPC)
  T/C: 96 % of control
dose: 18.0 mg/kg/injection, schedule: Q01DX005 (ip), vehicle: Klucel (hydroxypropylcellulose) (HPC)
  T/C: 94 % of control
dose: 36.0 mg/kg/injection, schedule: Q01DX005 (ip), vehicle: Klucel (hydroxypropylcellulose) (HPC)
  T/C: 87 % of control
dose: 72.0 mg/kg/injection, schedule: Q01DX005 (ip), vehicle: Klucel (hydroxypropylcellulose) (HPC)
  T/C: 92 % of control

## COC1C(/C=[N+](\[O-])C2C(C3COC(C)(C)O3)OC3OC(C)(C)OC32)OC2OC(C)(C)OC21 (centres undefined)
[10]
  T/C: 100 % of control
[11]
  T/C: 103 % of control
[12]
  T/C: 105 % of control

## O=C(O)c1ccc(N/N=C/C(F)(F)F)cc1
dose: 60.0 mg/kg/injection, schedule: Q01DX005 (ip), vehicle: saline + Tween-80 + alcohol
  T/C: 96 % of control
dose: 120.0 mg/kg/injection, schedule: Q01DX005 (ip), vehicle: saline + Tween-80 + alcohol
  T/C: 94 % of control
dose: 240.0 mg/kg/injection, schedule: Q01DX005 (ip), vehicle: saline + Tween-80 + alcohol
  T/C: 102 % of control

## O=c1cccccc1[O][Sn]([O]c1cccccc1=O)([c]1ccccc1)[c]1ccccc1
dose: 50.0 mg/kg/injection, schedule: Q01DX001 (ip), vehicle: Klucel (hydroxypropylcellulose) (HPC)
  T/C: 104 % of control
dose: 100.0 mg/kg/injection, schedule: Q01DX001 (ip), vehicle: Klucel (hydroxypropylcellulose) (HPC)
  T/C: 116 % of control

## CNS(=O)(=O)c1cc([N+](=O)[O-])c(N2CCCCC2)c([N+](=O)[O-])c1
[10]
  T/C: 100 % of control
[11]
  T/C: 100 % of control
[12]
  T/C: 99 % of control

## COc1ccc(C2OC3=Nc4cc(C)c(C)cc4NC3C2=O)cc1OC (centres undefined)
[4]
  T/C: 101 % of control
[5]
  T/C: 101 % of control
[6]
  T/C: 99 % of control

## COC(=O)/C=C(\C(=O)OC)C1=C(N2CCCC2)CC(C)(C)CC1=O
[7]
  T/C: 102 % of control
[8]
  T/C: 100 % of control and 95 % of control
[9]
  T/C: 100 % of control and 101 % of control

## Cc1cccc2c1CN1CC(=O)NC1=N2
[10]
  T/C: 103 % of control
[11]
  T/C: 97 % of control
[12]
  T/C: 86 % of control

## O=NN(CCCl)C(=O)Nc1ccc(Br)cn1
dose: 50.0 mg/kg/injection, schedule: Q04DX003 (ip), vehicle: saline with Tween-80
  T/C: 100 % of control
dose: 100.0 mg/kg/injection, schedule: Q01DX009 (ip), vehicle: saline with Tween-80
  T/C: 150 % of control
dose: 100.0 mg/kg/injection, schedule: Q04DX003 (ip), vehicle: saline with Tween-80
  T/C: 100 % of control
dose: 200.0 mg/kg/injection, schedule: Q01DX009 (ip), vehicle: saline with Tween-80
  T/C: 150 % of control
dose: 200.0 mg/kg/injection, schedule: Q04DX003 (ip), vehicle: saline with Tween-80
  T/C: 118 % of control

## O=C(NC1CCCN1C(=O)/C=C/c1ccccc1)NC1CCCN1C(=O)/C=C/c1ccccc1 (centres undefined)
[4]
  T/C: 100 % of control
[5]
  T/C: 88 % of control
[6]
  T/C: 101 % of control
